Reference: patent US20240254118A1, “PRMT5 INHIBITORS AND USES THEREOF” (Gilead Sciences, Inc., priority 2022, published 2024)

Key:
[1] = test system: SDMA signal (PRMT5 inhibition) in HCT116 MTAP-deleted cells; experiment: Symmetric di-methyl arginine image-based high content screen assay (SDMA assay), HCT116 MTAP-deleted; format: cell-based; details: SDMA assay; for EC50: Homo sapiens, HCT-116, 72 h, 3 days of treatment, cell line not given, taken as HCT116 MTAP-deleted, read-out: EC50 (SDMA assay); for EC50 selectivity (SDMA assay): taken as HCT116 WT versus MTAP-deleted
Method in brief: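 HCT116 MTAP-deleted cells treated with compound until Day 3, then formalin-fixed, permeabilized and immunostained for SDMA, with DAPI nuclear counterstain. Imaged by high-content microscopy; SDMA read-out is mean Alexa 488 intensity per DAPI-defined cell, reflecting PRMT5 inhibition.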

[2] = test system: HCT116 MTAP-deleted cells; experiment: Cell viability assay (CellTiter-Glo, 7 days), HCT116 MTAP-deleted; details: Homo sapiens, HCT-116, 168 h

SMILES | EC50 [1] | EC50 selectivity (SDMA assay) [1] | CC50 [2]
CN(C(=O)C1CC1)N(Cc1ccc(C(F)(F)F)cn1)C(=O)c1cc2c(cc1F)nc(N)c1cnn(C)c12 [Example 146, 4-amino-N′-(cyclopropanecarbonyl)-7-fluoro-N′,1-dimethyl-N-[[5-(trifluoromethyl)-2-pyridyl]methyl]pyrazolo[4,3-c]quinoline-8-carbohydrazide] | < 1 nM | 16 | < 100 nM
CC(=O)N(C)N(Cc1ccc(C(F)(F)F)cn1)C(=O)c1ccc2nc(N)c3c(cnn3C)c2c1 [Example 152, N′-acetyl-4-amino-N′,3-dimethyl-N-((5-(trifluoromethyl)pyridin-2-yl)methyl)-3H-pyrazolo[3,4-c]quinoline-8-carbohydrazide] | 1 to 5 nM | 128 | 100 to 1000 nM
CN(C(=O)N1CC(F)(F)C1)N(Cc1ccc(C(F)(F)F)cn1)C(=O)c1ccc2nc(N)c3cnn(C)c3c2c1 [Example 157, 4-amino-N′-(3,3-difluoroazetidine-1-carbonyl)-N′,1-dimethyl-N-((5-(trifluoromethyl)pyridin-2-yl)methyl)-1H-pyrazolo[4,3-c]quinoline-8-carbohydrazide] | < 1 nM | 54 | < 100 nM
CN(C(=O)c1nccn1C)N(Cc1ccc(C(F)(F)F)cn1)C(=O)c1ccc2nc(N)c3cnn(C)c3c2c1 [Example 158, 4-amino-N′,1-dimethyl-N′-(1-methyl-1H-imidazole-2-carbonyl)-N-((5-(trifluoromethyl)pyridin-2-yl)methyl)-1H-pyrazolo[4,3-c]quinoline-8-carbohydrazide] | < 1 nM | 4 | < 100 nM
Cn1ncc2c(N)nc3ccc(C(=O)N(Cc4ccc(C(F)(F)F)cn4)N4CCC5(CC5)C4=O)cc3c21 [Example 159, 4-amino-1-methyl-N-(4-oxo-5-azaspiro[2.4]heptan-5-yl)-N-((5-(trifluoromethyl)pyridin-2-yl)methyl)-1H-pyrazolo[4,3-c]quinoline-8-carboxamide] | < 1 nM | 69 | < 100 nM
CNC(=O)c1ccc(-c2ccc(CN(C(=O)c3ccc4nc(N)c5cnn(C)c5c4c3)N3CCCCC3=O)nc2)cn1 [Example 160, 4-amino-1-methyl-N-((6′-(methylcarbamoyl)-[3,3′-bipyridin]-6-yl)methyl)-N-(2-oxopiperidin-1-yl)-1H-pyrazolo[4,3-c]quinoline-8-carboxamide] | 1 to 5 nM | 10 | < 100 nM
CN(C(=O)c1ncccn1)N(Cc1ccc(C(F)(F)F)cn1)C(=O)c1ccc2nc(N)c3cnn(C)c3c2c1 [Example 163, 4-amino-N′,1-dimethyl-N′-(pyrimidine-2-carbonyl)-N-((5-(trifluoromethyl)pyridin-2-yl)methyl)-1H-pyrazolo[4,3-c]quinoline-8-carbohydrazide] | 1 to 5 nM | 145 | < 100 nM
CC(=O)N(C)N(Cc1ccc(C(F)(F)F)cn1)C(=O)c1cc2c3c(c(N)nc2cc1F)[C@@H](C)OC3 [Example 167, (3R)—N′-acetyl-4-amino-7-fluoro-N′,3-dimethyl-N-[[5-(trifluoromethyl)-2-pyridyl]methyl]-1,3-dihydrofuro[3,4-c]quinoline-8-carbohydrazide] | < 1 nM | 10 | < 100 nM
CC(=O)N(C)N(Cc1ccc(C(F)(F)F)cn1)C(=O)c1ccc2nc(N)c3c(c2c1)COC3 [Example 168, N′-acetyl-4-amino-N′-methyl-N-[[5-(trifluoromethyl)-2-pyridyl]methyl]-1,3-dihydrofuro[3,4-c]quinoline-8-carbohydrazide] | < 1 nM | 97 | < 100 nM

Now from value to compound, other results behind:

EC50 [1] | EC50 selectivity (SDMA assay) [1] | SMILES | CC50 [2]
< 1 nM | 16 | CC(=O)N(c1ccccn1)N(Cc1ccc(C(F)(F)F)cn1)C(=O)c1ccc2nc(N)c3cnn(C)c3c2c1 [Example 147, N′-acetyl-4-amino-1-methyl-N′-(2-pyridyl)-N-[[5-(trifluoromethyl)-2-pyridyl]methyl]pyrazolo[4,3-c]quinoline-8-carbohydrazide] | < 100 nM
1 to 5 nM | 66 | Cn1ncc2c(N)nc3cc(Cl)c(C(=O)N(Cc4ccc(C(F)(F)F)cn4)N4CCCCC4=O)cc3c21 [Example 148, 4-amino-7-chloro-1-methyl-N-(2-oxopiperidin-1-yl)-N-((5-(trifluoromethyl)pyridin-2-yl)methyl)-1H-pyrazolo[4,3-c]quinoline-8-carboxamide] | < 100 nM
1 to 5 nM | 18 | Cn1ncc2c(N)nc3cc(F)c(C(=O)N(Cc4ccc(C(F)(F)F)cn4)N4CCCCC4=O)cc3c21 [Example 149, 4-amino-7-fluoro-1-methyl-N-(2-oxopiperidin-1-yl)-N-((5-(trifluoromethyl)pyridin-2-yl)methyl)-1H-pyrazolo[4,3-c]quinoline-8-carboxamide] | < 100 nM
1 to 5 nM | 138 | Cn1ncc2c3cc(C(=O)N(Cc4ccc(C(F)(F)F)cn4)N4CCOC4=O)ccc3nc(N)c21 [Example 150, 4-amino-3-methyl-N-(2-oxooxazolidin-3-yl)-N-((5-(trifluoromethyl)pyridin-2-yl)methyl)-3H-pyrazolo[3,4-c]quinoline-8-carboxamide] | < 100 nM
< 1 nM | 525 | Cn1ncc2c3cc(C(=O)N(Cc4ccc(C(F)(F)F)cn4)N4CCCC4=O)ccc3nc(N)c21 [Example 151, 4-amino-3-methyl-N-(2-oxopyrrolidin-1-yl)-N-((5-(trifluoromethyl)pyridin-2-yl)methyl)-3H-pyrazolo[3,4-c]quinoline-8-carboxamide] | < 100 nM
1 to 5 nM | 54 | CC(=O)N(C)N(Cc1ccc(C(F)(F)F)cc1F)C(=O)c1ccc2nc(N)c3c(cnn3C)c2c1 [Example 153, N′-acetyl-4-amino-N-(2-fluoro-4-(trifluoromethyl)benzyl)-N′,3-dimethyl-3H-pyrazolo[3,4-c]quinoline-8-carbohydrazide] | < 100 nM
< 1 nM | 45 | CCN(C(C)=O)N(Cc1ccc(OC(F)F)cc1F)C(=O)c1cc2c(cc1F)nc(N)c1cnn(C)c12 [Example 154, N′-acetyl-4-amino-N-(4-(difluoromethoxy)-2-fluorobenzyl)-N′-ethyl-7-fluoro-1-methyl-1H-pyrazolo[4,3-c]quinoline-8-carbohydrazide] | < 100 nM
< 1 nM | 94 | CN(C(=O)C1CC1)N(Cc1ccc(Cl)cc1F)C(=O)c1ccc2nc(N)c3cnn(C)c3c2c1 [Example 155, 4-amino-N-(4-chloro-2-fluorobenzyl)-N′-(cyclopropanecarbonyl)-N′,1-dimethyl-1H-pyrazolo[4,3-c]quinoline-8-carbohydrazide] | < 100 nM
< 1 nM | 34 | CN(C(=O)N1CC(F)C1)N(Cc1ccc(C(F)(F)F)cn1)C(=O)c1ccc2nc(N)c3cnn(C)c3c2c1 [Example 156, 4-amino-N′-(3-fluoroazetidine-1-carbonyl)-N′,1-dimethyl-N-((5-(trifluoromethyl)pyridin-2-yl)methyl)-1H-pyrazolo[4,3-c]quinoline-8-carbohydrazide] | < 100 nM
1 to 5 nM | 51 | Cn1ncc2c(N)nc3ccc(C(=O)N(Cc4ccc(-c5cnn(C(F)(F)F)c5)cn4)N4CCCCC4=O)cc3c21 [Example 161, 4-amino-1-methyl-N-(2-oxopiperidin-1-yl)-N-((5-(1-(trifluoromethyl)-1H-pyrazol-4-yl)pyridin-2-yl)methyl)-1H-pyrazolo[4,3-c]quinoline-8-carboxamide] | < 100 nM
< 1 nM | 127 | CN(C(=O)C1CCC1)N(Cc1ccc(C(F)(F)F)nn1)C(=O)c1cc2c(cc1F)nc(N)c1cnn(C)c12 [Example 162, 4-amino-N′-(cyclobutanecarbonyl)-7-fluoro-N′,1-dimethyl-N-((6-(trifluoromethyl)pyridazin-3-yl)methyl)-1H-pyrazolo[4,3-c]quinoline-8-carbohydrazide] | < 100 nM
1 to 5 nM | 163 | CC(=O)N(C)N(Cc1ccc2c(cnn2C)c1)C(=O)c1ccc2nc(N)c3cnn(C)c3c2c1 [Example 164, N′-acetyl-4-amino-N′,1-dimethyl-N-((1-methyl-1H-indazol-5-yl)methyl)-1H-pyrazolo[4,3-c]quinoline-8-carbohydrazide] | < 100 nM
< 1 nM | 11 | CN(C(=O)c1ncco1)N(Cc1ccc(C(F)(F)F)cc1F)C(=O)c1ccc2nc(N)c3cnn(C)c3c2c1 [Example 165, N′-(4-amino-1-methyl-1H-pyrazolo[4,3-c]quinoline-8-carbonyl)-N′-(2-fluoro-4-(trifluoromethyl)benzyl)-N-methyloxazole-2-carbohydrazide] | < 100 nM
< 1 nM | 21 | CN(C(=O)c1cocn1)N(Cc1ccc(C(F)(F)F)cc1F)C(=O)c1ccc2nc(N)c3cnn(C)c3c2c1 [Example 166, N′-(4-amino-1-methyl-1H-pyrazolo[4,3-c]quinoline-8-carbonyl)-N′-(2-fluoro-4-(trifluoromethyl)benzyl)-N-methyloxazole-4-carbohydrazide] | < 100 nM
